“Also recorded” adds a separate entry of the source.
Assay: Determination of Z-pro metabolites in mice urine
Format: in vivo, mouse
Settings: mice; 0.91 mg/Kg intraperitoneally; urine collected after 24 hours; mass spectrometry; 0.91 mg/kg
Procedure: In vivo hydrolysis of peptides SEQ ID NO 1, SEQ ID NO 4, SEQ ID NO 5, SEQ ID NO 8, and SEQ ID NO 15 was investigated in Swiss male mice weighing approximately 22-25 g, which had free access to food and water, and were kept under a light-dark cycle of 12 hour periods.
Groups of 10 mice were treated intraperitoneally with 0.91 mg/Kg of each proline rich oligopeptide per animal, diluted in 200 μl saline. Treated and control animals (not treated) were kept in metabolic cages, and their urine was collected after 24 hours. The urine was pre-purified in a reverse phase Sep-Pak C18 micro column (Waters), which had been previously equilibrated with solvent A (H2O/0.1% TFA). Samples were eluted with 60% solvent B (90% acetonitrile/10% solvent A), lyophilized, and resuspended in 1 ml deionized water to be centrifuged at 14.000 rpm for 5 minutes. The supernatant (500 μl) was fractionated in an analytic HPLC system. The gradient was 5-65% solvent B for 30 minutes, using a flow rate of 1 ml/min and monitoring at 214 nm. Fractions were lyophilized and ressuspended in acetonitrile/H2O (1:1), containing 0.2% formic acid, and were analyzed by mass spectrometry (Q-TOF-Pro). Urine fractions from control and treated animals were compared to determine the presence of metabolites originated from the peptides being tested.

<ENWPHPQIPP [SEQ ID NO 8]
Metabolites in the urine: <ENWPHPQIPP; also recorded: <ENWPHPQIP
